Data set [1] relates to A2780/C30 cells. Put plainly: Cellular accumulation of platinum by atomic absorption, A2780/C30. It counts as cell-based, human. The settings on record: at its IC50 value.
The next data set deals with fas. Briefly: Apoptotic gene array, real-time PCR: fas. It counts as cell-based. The settings on record: preliminary. On the procedure: (§1) Preliminary gene expression experiments involving complexes of the present invention as compared to cisplatin (data not shown) were carried out with an apoptotic array containing 84 genes that includes the BCL2 superfamily, both pro- and anti-apoptotic, caspases, the BIR-family, TNF receptor […] factors, p53 and its congeners, and fas associated members by real-time PCR. A closer look at the two sets of gene expressions clearly indicates a number of differences in the expression patterns. […] Specifically, fas was over-expressed by 6-fold compared to the control, and TNFRS genes such as TNFRSF-10B was overexpressed by 2-3 folds over controls. These latter receptor factors belong to the fas superfamily.
(Quantitative PCR measures a nucleic acid by following its amplification.)

The nature of data set [2]: pKa from 31P chemical shift as a function of pH. Type of data set: physicochemical.
In another data set the test system is TNFRSF-10B. Briefly: Apoptotic gene array, real-time PCR: TNFRSF-10B. It counts as cell-based. The settings on record: preliminary. On the procedure: as §1
Data set [3] deals with A2780/C30 cells. Put plainly: Cellular accumulation of platinum by atomic absorption, A2780/C30. The conditions noted are these: 1 hr exposure. Type of data set: cell-based, human. On the procedure:
(§2) Platinum content was quantitatively estimated on a Graphite Furnace Atomic Absorption Spectrometer (Perkin Elmer AA-600) from calibration curves established by using cisplatin or pyrodach-2 in water. Cells (5×10^6) were seeded in T75 cm^2 flasks. After 24 h, these cells were then treated with the different concentrations (0, 10, 20, 30 and 50 μM) of cisplatin and pyrodach-2. After 1 hr exposure with the platinum complexes, the drug-containing medium was removed and the cells were washed with ice-cold phosphate-buffered saline (PBS). The cells were then trypsinized and centrifuged into a pellet. Cell pellets were digested in concentrated HNO3 and H2O2 prior to analysis, according to the method of McGahan. Data reported in Table 4 were collected from three independent experiments each was carried out in duplicate. For the cisplatin accumulation, data were obtained from triplicate runs from a single sample at a given concentration.

Data set [4] relates to UMSCC10b (Cisplatin-sensitive) cells. Put plainly: Cytotoxicity in head and neck cancer cells, cisplatin-sensitive. Type of data set: cell-based, human. As to the method: The UMSCC10b (Cisplatin-sensitive) and UMSCC10b/15s (Cisplatin-resistant) cell lines derived from human head and neck squamous cell cancer were lines were obtained from Dr. Stephen B. Howell of the University of California, Dan Diego. Cells were cultured in 1640 RPMI with 10% fetal bovine serum, 100 units/ml penicillin and 100 μg/m1 of streptomycin. Cells were seeded into 24-well plates with approximately 20,000 cells/500 μl of media in each well plate. Cells were exposed to dach-2 with variable concentrations ranging from 1.12 μM to maximum of 72 μM. Stock solutions of dach-2 complex were prepared and aliquots of these solutions were added to make those effective concentrations. Cells were then allowed to grow for 72 hours. Twelve different concentrations were used in this study. Each concentration had one control for a total of 12 controls.

The test system of data set [5] is A2780 human ovarian cancer cells. Put plainly: Clonogenic assay, A2780. It counts as cell-based. The settings on record: 1 hour drug treatment, 1 week colony formation, read-out: IC50 A780. On the procedure: Human ovarian cancer cells, A2780, were obtained from Dr. Thomas Hamilton (Fox Chase Cancer Center, Philadelphia, Pa.). Cells were cultured on monolayer using RPMI 1640 supplemented with 10% fetal bovine serum, 2 mM glutamine, 0.25 units/mL insulin and penicillin/streptomycin in a 37 degrees C. incubator continuously gassed with 5% CO2. Cells were subcultured using 0.0625% trypsin in HBSS to maintain cells in exponential growth.
IC50 values were determined using a clonogenic assay. Briefly, 500 A2780 cells from a single cell suspension were plated onto 60mm Petri plates 24 hours before drug treatment to permit cell attachment. On the day of drug treatment, the medium was decanted and replaced with the drug and these treated cells were placed back into the 37 degrees C. incubator for 1 hour. Triplicate plates were set up for each drug concentration. After the 1 hour drug treatment, the drug containing medium was decanted and replaced with fresh medium. These plates were returned to the 37 degrees C. incubator for 1 week for colony formation. Colonies were fixed and stained using 2% crystal violet in absolute methanol. Colonies containing more than 50 cells were scored. The number of scored colonies from the triplicate plates was averaged and this number was divided by the number of cells plated to obtain a value for the fraction of cells forming colonies. These values for fraction of cells forming colonies were then corrected for plating efficiency by dividing it by the number of cells forming colonies in plates that were not treated with drug.

The subject of the next data set is A2780 cells. Briefly: Cellular accumulation of platinum by atomic absorption, A2780. It counts as cell-based, human. The settings on record: for Cellular accumulation of platinum: 1 hr exposure. As to the method: as §2
Data set [6] is described as follows: Stability in aqueous solution by 31P NMR. It counts as physicochemical. On the procedure: Starting with the bottom spectrum in each panel, spectra were recorded at 24 hour time intervals.
At neutral pH, the isolated monomeric Pt(II) and Pl(IV) complexes of the present invention are stable. […] However, in the same time interval, slow deligation due to the release of the pyrophosphate ligand was evident at pH 4.2 by the appearance of the free pyrophosphate signal at −10.3 ppm. At the same time, an insoluble pyrophosphate-bridged dinuclear platinum(II) product was formed.

The mark [7] stands for this setting: calculated from phosphorus-31 chemical shifts.

Read-outs that look alike come from different tables or passages of the source.

A word on the IC50: it is the midpoint of a concentration-inhibition curve. `NC1CCCCC1N.O=P([O-])(O)OP(=O)([O-])O.[Pt+2]` [dach-2, (Trans-1,2-cyclohexanediamine)(dihydrogenpyrophosphato)platinum(II)]: the “platinum accumulation in the resistant cell lines” value with A2780/C30 cells [1] was 1.4 ng Pt/10^6 cells. Besides, the “fas over-expression compared to the control” value in the data set with fas is 6 fold. For the same compound, in data set [2] (setting [7]), the pKa1 is reported as 2.6 ± 0.2. In [2] (setting [7]), the pKa2 is 4.4 ± 0.2. Further, in [2] (second value printed in parentheses under pKa1, not explained), the “pKa1 (value in parentheses)” value is “(3.3 ± 0.1)”. Besides, the “TNFRSF-10B overexpression over controls” value in the data set with TNFRSF-10B is 2-3 folds. Further, the “Cellular accumulation of platinum” value in the data set on A2780/C30 cells [3] (A2780/C30, 10 μM) amounted to 0.10 ± 0.08 ng/10^6 cells; in the data set with A2780/C30 cells [3] (A2780/C30, 20 μM), 1.00 ± 0.02 ng/10^6 cells; in the data set on A2780/C30 cells [3] (A2780/C30, 30 μM), 1.00 ± 0.02 ng/10^6 cells; with A2780/C30 cells [3] (A2780/C30, 50 μM), 2.00 ± 0.10 ng/10^6 cells; in the data set with A2780 cells (A2780, 10 μM) it was 1.00 ± 0.10 ng/10^6 cells; in the data set with A2780 cells (A2780, 20 μM), 1.50 ± 0.30 ng/10^6 cells. In addition, the “Cellular accumulation of platinum” value in the data set on A2780 cells (A2780, 30 μM) was determined as 3.00 ± 1.00 ng/10^6 cells; in the data set with A2780 cells (A2780, 50 μM), 5.00 ± 0.30 ng/10^6 cells. The IC50 in data set [4] (72 hours growth, estimated, read-out: IC50 for UMSCC10b (Cisplatin-sensitive)) was under 1 µM; in [4] (FIG. 9 legend, read-out: IC50 cisplatin-sensitive head and neck cancer cells), under 1 µM; in data set [5] it was 20 ± 4 µM. Moreover, in the data set with A2780 cells (at 10 μM concentration), the “accumulation in A2780 cells” value is listed as 1.0 ng Pt/10^6 cells. Also, the “decomposition / deligation at pH 4.2” value in data set [6] (pH 4.2, six days) was “considerable decomposition”. Further, in data set [6] (pH 8, up to six days), the “decomposition at pH 8” value is reported as “no decomposition”.

These data come from patent US8653132B2, “Phosphaplatins and their use in pharmaceutical compositions” (Ohio University, priority 2007, dated 2014).
